{"source": "the NIST ThermoML archive (doi:10.1021/acs.jced.8b00715)", "key": {"[1]": {"assay": "refractive index (Na D-line) (dimensionless); wn = mass fraction of the nth substance listed", "conditions": "298.15 K, 100 kPa, Liquid, Standard Abbe refractometry"}, "[2]": {"assay": "wn = mass fraction of the nth substance listed", "conditions": "298.15 K, 100 kPa, Liquid, Vibrating tube method"}}, "note": "± gives the expanded uncertainty stated by the source.", "data": [{"smiles": "[Cl-].[Na+]", "note": "[sodium chloride] + O", "values": [{"measurement": "refractive index", "setting": "[1]; w1 = 0.2645", "value": "1.3796 ± 0.0015"}, {"measurement": "mass density", "setting": "[2]; w1 = 0.2645", "value": "1198.1 ± 5.6", "unit": "kg/m3"}]}, {"smiles": "O=B[O-].[Na+]", "note": "[sodium metaborate] + O", "values": [{"measurement": "refractive index", "setting": "[1]; w1 = 0.2259", "value": "1.3872 ± 0.0007"}, {"measurement": "mass density", "setting": "[2]; w1 = 0.2259", "value": "1267.8 ± 1.1", "unit": "kg/m3"}]}, {"smiles": "O=S(=O)([O-])[O-].[Na+].[Na+]", "note": "[sodium sulfate] + O", "values": [{"measurement": "refractive index", "setting": "[1]; w1 = 0.219", "value": "1.3626 ± 0.002"}, {"measurement": "mass density", "setting": "[2]; w1 = 0.219", "value": "1204.85 ± 14", "unit": "kg/m3"}]}]}
